Each block holds one compound with its values, some of them ahead of it.
How the values were obtained:
[1] = test system: human neutrophils [인간 호중구]; conditions: through human endothelial cells and epithelial cells, e.g. human intestinal epithelial cell line T84; literature; cited from earlier work
[2] = Relative chemical stability of polymorph I over 4 weeks under storage (HPLC purity); format: physicochemical; conditions: for HPLC purity: week 0; for HPLC purity at 336 h / HPLC purity at 672 h: solid storage; for HPLC purity at 336 h: week 2; for HPLC purity at 672 h: week 4
[3] = Hygroscopicity: water sorption/desorption in an automated water sorption analyser, 25 ℃; format: physicochemical

Structure (SMILES): CCCCC[C@H](O)/C=C/C=C\C=C\C=C\[C@@H](O)[C@@H](O)CCCC(=O)O [리폭신 A4]
inhibition of transmigration of human neutrophils [1]: 억제한다

HPLC purity ([2]; 25 ℃, dry): 97.36%
HPLC purity ([2]; 25 ℃/60%RH): 97.36%
HPLC purity ([2]; 40 ℃, dry): 97.36%
HPLC purity ([2]; 40 ℃/75%RH): 97.36%
HPLC purity at 336 h ([2]; 25 ℃, dry): 97.5%
HPLC purity at 672 h ([2]; 25 ℃, dry): 97.5%
HPLC purity at 336 h ([2]; 25 ℃/60%RH): 97.5%
HPLC purity at 672 h ([2]; 25 ℃/60%RH): 97.7%
HPLC purity at 336 h ([2]; 40 ℃, dry): 96.9%
HPLC purity at 672 h ([2]; 40 ℃, dry): 96.4%
HPLC purity at 336 h ([2]; 40 ℃/75%RH): 95.9%
HPLC purity at 672 h ([2]; 40 ℃/75%RH): 92.5%
moisture adsorbed ([3]; 80% relative humidity, corresponds to the dihydrate of the substance): ~8%
hygroscopicity ([3]; in words): 흡습성
reversibility of hydration ([3]; in words): 가역적
relative humidity at which polymorph I transforms into the hydrate ([3]; relative humidity): > 60%
Structure (SMILES): O=C(O)COC[C@H](O)[C@H](O)/C=C/C=C/C#C/C=C/[C@H](O)COc1ccc(F)cc1 [다형체 I, 2-((2S,3R,4E,6E,10E,12S)-13-(4-플루오로페녹시)-2,3,12-트리히드록시트리데카-4,6,10-트리엔-8-이닐옥시)아세트산]

relative humidity at which transformation into polymorph I is observed ([3]; relative humidity, reversal of hydration): < 40%
Structure (SMILES): O=C(O)COC[C@H](O)[C@H](O)/C=C/C=C/C#C/C=C/[C@H](O)COc1ccc(F)cc1 [수화물, 2-((2S,3R,4E,6E,10E,12S)-13-(4-플루오로페녹시)-2,3,12-트리히드록시트리데카-4,6,10-트리엔-8-이닐옥시)아세트산]
